Reference: ChEMBL document CHEMBL1201862, “PubChem BioAssay data set” (2004)
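Assay format: 96-well plates, 48-hour exposure. GI50: concentration for 50% inhibition of growth.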 Activity calls are given as the source filed them. Rule as the data show it: active = GI50 up to about 1.1 µM and inactive = higher.

Columns and labels:
Test in all cases: NCI-60 cell line screen, 48 h
HCT-116 = tested on: HCT-116
UO-31 = tested on: UO-31
SF-268 = tested on: SF-268
OVCAR-5 = tested on: OVCAR-5
HOP-18 = tested on: HOP-18
IGROV-1 = tested on: IGROV-1
SW-620 = tested on: SW-620
HOP-62 = tested on: HOP-62
RXF 393 = tested on: RXF 393
NCI/ADR-RES = tested on: NCI/ADR-RES
MDA-MB-435 = tested on: MDA-MB-435
OVCAR-3 = tested on: OVCAR-3
RPMI-8226 = tested on: RPMI-8226
A498 = tested on: A498
Malme-3M = tested on: Malme-3M
SNB-75 = tested on: SNB-75
HCT-15 = tested on: HCT-15
SF-539 = tested on: SF-539
MOLT-4 = tested on: MOLT-4
HOP-92 = tested on: HOP-92

Compound | GI50 (HCT-116) | GI50 (UO-31) | GI50 (SF-268) | GI50 (OVCAR-5) | GI50 (HOP-18) | GI50 (IGROV-1) | GI50 (SW-620) | GI50 (HOP-62) | GI50 (RXF 393) | GI50 (NCI/ADR-RES) | GI50 (MDA-MB-435) | GI50 (OVCAR-3) | GI50 (RPMI-8226) | GI50 (A498) | GI50 (Malme-3M) | GI50 (SNB-75) | GI50 (HCT-15) [µM] | GI50 (SF-539) | GI50 (MOLT-4) | GI50 (HOP-92)
Oc1cc(-c2cccc(Br)c2)nc2cc3c(cc12)OCO3 | 3.53 µM (inactive) | 5.81 µM (inactive) | 4.36 µM (inactive) | 51.5 µM (inactive) | 15.7 µM (inactive) | 1.8 µM (inactive) | 3.61 µM (inactive) | 1.99 µM (inactive) | 4.33 µM (inactive) | 4.56 µM (inactive) | 0.883 µM (active) | 3.01 µM (inactive) | 15 µM (inactive) | 3.08 µM (inactive) | 2.7 µM (inactive) | 2.72 µM (inactive) | 4.14 | 2.19 µM (inactive) | 72.3 µM (inactive) | –
COC(=O)[C@H](C)NC(=O)C1(CNC(=O)[C@H](C)NC(=O)OC(C)(C)C)Cc2ccccc2-c2ccccc2C1 | 33.8 µM (inactive) | 4.67 µM (inactive) | 19.6 µM (inactive) | 19.9 µM (inactive) | – | 16.3 µM (inactive) | 26.2 µM (inactive) | 27 µM (inactive) | 25.5 µM (inactive) | 17.5 µM (inactive) | 20 µM (inactive) | 17.5 µM (inactive) | 7.59 µM (inactive) | 35.7 µM (inactive) | 19.1 µM (inactive) | 23.4 µM (inactive) | 15.7 | 27 µM (inactive) | 16.7 µM (inactive) | 5.51 µM (inactive)
COc1ccc(/C=C2\CCC(CCN3CCOCC3)C2=O)cc1 (stereo not given) | > 100 µM (inactive) | > 100 µM (inactive) | > 100 µM (inactive) | > 100 µM (inactive) | > 100 µM (inactive) | > 100 µM (inactive) | > 100 µM (inactive) | > 100 µM (inactive) | > 100 µM (inactive) | – | – | > 100 µM (inactive) | > 100 µM (inactive) | > 100 µM (inactive) | > 100 µM (inactive) | > 100 µM (inactive) | > 100 | > 100 µM (inactive) | > 100 µM (inactive) | > 100 µM (inactive)
Cc1ccc(S(=O)OC2c3ccccc3Cc3ccccc32)cc1 (stereo not given) | 17.1 µM (inactive) | 18.3 µM (inactive) | 20.7 µM (inactive) | 15.6 µM (inactive) | 24.8 µM (inactive) | 21.6 µM (inactive) | 22.5 µM (inactive) | 17.5 µM (inactive) | 13.3 µM (inactive) | – | – | 21.5 µM (inactive) | 36.1 µM (inactive) | 21.9 µM (inactive) | 13.1 µM (inactive) | 17.9 µM (inactive) | 19.9 | 18.5 µM (inactive) | 19.2 µM (inactive) | 17.2 µM (inactive)
Cn1c(=O)c2nc(-c3ccc(Cl)cc3)oc2n(C)c1=O | > 100 µM (inactive) | > 100 µM (inactive) | > 100 µM (inactive) | > 100 µM (inactive) | > 100 µM (inactive) | – | > 100 µM (inactive) | – | > 100 µM (inactive) | – | – | > 100 µM (inactive) | > 100 µM (inactive) | > 100 µM (inactive) | > 100 µM (inactive) | > 100 µM (inactive) | > 100 | > 100 µM (inactive) | > 100 µM (inactive) | > 100 µM (inactive)
CCOc1c(Cc2ccccc2)c(=O)n2c3ccccc3n3c(=O)n(C)c(=O)c1c23 | > 100 µM (inactive) | > 100 µM (inactive) | > 100 µM (inactive) | > 100 µM (inactive) | > 100 µM (inactive) | > 100 µM (inactive) | > 100 µM (inactive) | > 100 µM (inactive) | > 100 µM (inactive) | – | – | > 100 µM (inactive) | > 100 µM (inactive) | > 100 µM (inactive) | > 100 µM (inactive) | 27.2 µM (inactive) | > 100 | > 100 µM (inactive) | > 100 µM (inactive) | > 100 µM (inactive)
CC(C)c1cccc(C(C)C)c1NC(=O)C(=O)C1SC(=S)NC1=O (stereo not given) | > 100 µM (inactive) | > 100 µM (inactive) | > 100 µM (inactive) | > 100 µM (inactive) | > 100 µM (inactive) | > 100 µM (inactive) | > 100 µM (inactive) | > 100 µM (inactive) | > 100 µM (inactive) | – | – | – | > 100 µM (inactive) | > 100 µM (inactive) | > 100 µM (inactive) | > 100 µM (inactive) | > 100 | > 100 µM (inactive) | > 100 µM (inactive) | > 100 µM (inactive)
CCCCCCCC/C=C1\CCC(CN2CCOCC2)C1=O (stereo not given) | 3.53 µM (inactive) | 8.36 µM (inactive) | 9.35 µM (inactive) | 20.4 µM (inactive) | 13.1 µM (inactive) | 7.35 µM (inactive) | 2.7 µM (inactive) | 15.1 µM (inactive) | 12.5 µM (inactive) | 3.79 µM (inactive) | 4.81 µM (inactive) | 7.5 µM (inactive) | 0.551 µM (active) | 15.8 µM (inactive) | 10.5 µM (inactive) | 2.61 µM (inactive) | 3.09 | 7.74 µM (inactive) | 2.13 µM (inactive) | 16.6 µM (inactive)
